Where two headings read alike, the source gives them in different places.
Legend:
[1] = tested on: E. multilocularis MV; experiment: Mature metacestode vesicle (MV) assay, structural integrity by microscopy; type: cell-based, Echinococcus multilocularis; conditions: for structural vesicle damage of MV (screen of 20 in silico compounds): 3 and 10 μM
Procedure: In mature MV assays, 10 individual MV each were cultured in 2 ml of conditioned medium (100% A6 medium) in the presence of inhibitors in 12 well plates under axenic conditions for 28 d as described in [39]. […] Structural integrity of MV was assessed using an optical microscope (Nikon eclipse Ts2-FL). Experimental set-up and execution of inhibitor studies and structural integrity assessment was performed by independent experimenters. Criteria for intact or damaged vesicles were essentially as previously described. All experiments were performed using 3 biological replicates. Percentages of structurally intact vesicles were statistically analyzed with one-way ANOVA with Dunnet’s multiple comparison tests in Graphpad prism 9.3.1(Graphpad software).

[2] = cited from earlier work
[3] = tested on: E. multilocularis PC; experiment: Cell viability assay (Cell Titer Glo 2.0) on E. multilocularis primary cell cultures (PC), initial kinase inhibitor screen; type: cell-based, Echinococcus multilocularis; conditions: for inhibition at 10 µM: Echinococcus multilocularis, read-out: growth inhibition of Echinococcus PC
[4] = set-up: method as in PMID 30370255; conditions: non-Hodgkin lymphoma and prostate cancer; cited from earlier work
[5] = tested on: a broad variety of other cell types, including chronic lymphocytic leukemia cells; set-up: method as in PMID 22052829, PMID 19734450; conditions: read-out: in vitro IC50 against a broad variety of other cell types; cited from earlier work
[6] = tested on: E. multilocularis PC; experiment: Vesicle formation assay (MV formation from PC); type: cell-based, Echinococcus multilocularis
Procedure: In vesicle formation assays, PC were isolated as described above and 100 U of isolated PC (~1.5×10^4 cells/well) were seeded in 96 well plates with 200 μl of conditioned medium (50% A6 medium + 50% B4 medium) for 21 d under nitrogen atmosphere. The number of newly formed vesicles was counted using an optical microscope (Nikon eclipse Ts2-FL) essentially as previously described. Kruskal-Wallis test followed by Dunn’s multiple comparisons test was used in GraphPad Prism version 9.3.1(Graphpad software) to analyze the difference of vesicle numbers in control and treatment groups. In this analysis, all concentrations were compared with the negative control DMSO. Experiments with SGI-1776 and CX-6258 were performed in three biological and technical replicates. Experiments with SGI-1776 and Z196138710 were performed in three technical replicates.

[7] = tested on: solid tumour xenografts; set-up: method as in PMID 22052829, PMID 25589932; conditions: mice, plasma concentrations around 3 μM free compound; cited from earlier work
[8] = tested on: human Pim-1; conditions: cited from earlier work
[9] = tested on: FLT3; conditions: cited from earlier work
[10] = tested on: human Pim-2; conditions: cited from earlier work
[11] = tested on: human Pim-3; conditions: cited from earlier work
[12] = tested on: haspin; conditions: cited from earlier work
[13] = tested on: HEK293T cells; experiment: Mammalian cell toxicity, Cell Titer Glo 2.0 viability; type: cell-based, human; conditions: for IC50: read-out: IC50 against HEK293T cells
Procedure: (§1) The toxicity of inhibitors against mammalian cells was evaluated by treatment of the commonly used cell lines HEK293T [42] and HepG2 [43], which were cultivated and passaged as described in [43, 44]. […] 24 h after seeding, 50 μl of DMEM+GlutaMAX-I including FBS and inhibitors were added. Final concentrations of inhibitors were adjusted to 0–30 μM as indicated, DMSO alone was used as a control. Plates were incubated for 3 d under aerobic conditions and cell viability was measured using the Cell Titer Glo 2.0 system (Promega) according to the manufacturer’s instructions. Luminescence was measured by a Spectramax iD3 Multi-mode Microplate reader (Molecular Devices). Three independent experiments with three technical replicates were carried out for both cell lines. Luminescence units were normalized to the DMSO control of each independent experiment and expressed as percentage of luminescence unit. One-Way-ANOVA test followed by Tukey’s multiple comparisons test was used in GraphPad Prism version 9.3.1 (Graphpad software) for statistical analysis. Based on the cell viability data, dose-response curves were drawn and IC50 (best fit value) were calculated using GraphPad Prism version 9.3.1 (Graphpad software).

[14] = tested on: HepG2 cells; experiment: as above; type: cell-based, human; conditions: for IC50: read-out: IC50 against HepG2 cells
Procedure: as §1

[15] = tested on: human Ether-á-go-go-related (hERG) cardiac ion channel; conditions: cited from earlier work
[16] = tested on: E. multilocularis; set-up: method as in PMID 26389799; conditions: cited from earlier work
[17] = tested on: Echinococcus; conditions: ref PMID:9593125; cited from earlier work
[18] = response to reviewers, ref literature, not numbered at the place

With CN(C)C(=O)CN1CCN(Cc2nc3scc(-c4ccccc4Cl)c3c(=O)[nH]2)CC1 [Z65225039] the “structural vesicle damage of MV (screen of 20 in silico compounds)” value (“structural vesicle damage of MV” below) ([1]; 28 d) was “highly effective in inducing structural vesicle damage”.
In the case of CN1CCC(CNc2ccc3ncc(-c4cccc(OC(F)(F)F)c4)n3n2)CC1 [SGI-1776], the “compound bound to plasma proteins” value ([2]; in vivo application in mice) is given as “around 95%”, the “well tolerated plasma concentration of free compound (not bound to plasma proteins)” value ([2]; mice) is given as “around 3 μM” and the “concentration of free (unbound) compound achieved in the plasma of mammals” value [2, 18] is given as […]. The “drug bound to human plasma protein” value [2, 18] was “about 95%”, the inhibition at 10 µM ([3]; 72 h) was roughly 60% and the inhibition at 10 µM ([3]; 168 h) was roughly 80%. The “toxicity in clinical phase I trials” value [4] was “toxicity in cardiac electric cycle prolongation”, the IC50 [5] was roughly 3000 nM and the “MV formation from stem cells (PC)” value ([6]; 3 μM, 21 d) was “did not lead to statistically significant effects”. For the same molecule, the “MV formation from stem cells (PC)” value ([6]; 10 μM, 21 d) was “almost completely”, the “MV formation from stem cells (PC)” value ([6]; 30 μM, 21 d) was “completely prevented” and the “efficacy against solid tumour xenografts” value [7] was “effective against solid tumour xenografts in mice”. For the same molecule, the IC50 ([8]; read-out: IC50 against human Pim-1) was […], the IC50 ([9]; read-out: IC50 against FLT3) was 44 nM and the IC50 ([10]; read-out: IC50 against human Pim-2) was 363 nM. The IC50 ([11]; read-out: IC50 against human Pim-3) was 69 nM, the IC50 ([12]; read-out: IC50 against haspin) was 34 nM and the “effect on HEK293T cells” value ([13]; 30 and 10 μM, 3 d) was “fully eliminated”. The IC50 ([13]; Homo sapiens, HEK-293T, 72 h) was roughly 1000 nM, the “effect on HepG2 cells” value ([14]; 30 and 10 μM, 3 d) was “fully eliminated” and the IC50 ([14]; Homo sapiens, HepG2, 72 h) was roughly 1000 nM. For the same molecule, the “cause of toxicity in clinical trials: hERG” value [15] was “off-target effects”, the “effect on structural integrity of mature MV” value (“effect on structural integrity” for short) ([1]; 3 μM, 28 d) was “did not lead to statistically significant effects” and the “effect on structural integrity” value ([1]; 10 μM, 28 d) was “almost all”.
In the case of CCC1CN(Cc2nc3cc(OC)c(OC)cc3c(=O)[nH]2)CCO1 (stereo not drawn) [Z354576500], the “structural vesicle damage of MV” value ([1]; 28 d) is reported as “highly effective in inducing structural vesicle damage”.
For CCCSc1ccc2nc(NC(=O)OC)[nH]c2c1 [albendazole], the “efficacy against the parasite in AE patients” value [16] is listed as “effective against the parasite in only one third of cases”.
For COc1cc(CNc2ncnc3ccsc23)ccc1OC(F)F [Z196138710, N-(4-(difluoromethoxy)-3-methoxybenzyl)-thieno-[3,2-d]-pyrimidin-4-amine], the “concentration effective against the parasite, stem cell cultures” value [6] was 3 µM, the “MV formation from stem cells (PC)” value ([6]; 10 μM, 21 d) was “completely prevented MV formation” and the “MV development from primary cells, comparison with SGI-1776” value ([6]; different concentrations, 21 d) was “effects similar to those of SGI-1776”. For the same molecule, the “inhibition of HEK293T cells” value ([13]; 30 and 10 μM, 3 d) was 40–60%, the IC50 ([13]; Homo sapiens, HEK-293T, 72 h, 3 d, cell viability) was 11000 nM and the “inhibition of HepG2 cells” value ([14]; 30 and 10 μM, 3 d) was 40–60%. The IC50 ([14]; Homo sapiens, HepG2, 72 h, 3 d, cell viability) was 16000 nM, the “concentration effective against the parasite, mature MV” value [1] was 10 µM and the “structural disintegration of MV” value ([1]; 10 μM, 28 d) was 100%. The “structural vesicle damage of MV” value ([1]; 28 d) was “highly effective in inducing structural vesicle damage”.
In the case of COC(=O)Nc1nc2ccc(C(=O)c3ccccc3)cc2[nH]1 [mebendazole], the “efficacy against the parasite in AE patients” value [16] is listed as “effective against the parasite in only one third of cases” and the “in vitro active concentrations” value [17] is listed as 1 to 10 µM.
In the case of Cc1noc(C)c1COc1cccc(C(=O)N2CCC(C(N)=O)CC2)c1 [Z30898879], the “structural vesicle damage of MV” value ([1]; 28 d) is reported as “highly effective in inducing structural vesicle damage”.
In the case of Cc1nc(Nc2ncc(C(=O)Nc3c(C)cccc3Cl)s2)cc(N2CCN(CCO)CC2)n1 [Dasatinib], the “effect on parasite PC proliferation” value ([3]; 10 μM, 3 d and 7 d) is reported as “stimulated parasite cell proliferation”.
For CN1CCCN(C(=O)c2cccc(-c3ccc(/C=C4/C(=O)Nc5ccc(Cl)cc54)o3)c2)CC1 [CX-6258], the “MV formation from stem cells (PC)” value ([6]; 3 μM, 21 d) is given as “drastically affected MV formation”, the “MV formation from stem cells (PC)” value ([6]; concentrations higher than 3 μM, 21 d) is given as “completely inhibited MV development” and the IC50 ([8]; read-out: IC50 Pim-1) is given as […]. For the same molecule, the IC50 ([9]; read-out: IC50 FLT3) was 134 nM, the IC50 ([10]; read-out: IC50 Pim-2) was 25 nM and the IC50 ([11]; read-out: IC50 Pim-3) was 16 nM. For the same molecule, the “activity against haspin kinase” value ([12]; melanoma cell lines) was “much higher IC50 values than against Pim-1 and Pim-3”, the “effect on HEK293T cells” value ([13]; 30 and 10 μM, 3 d) was “fully eliminated” and the IC50 ([13]; 3 d, cell viability) was roughly 1000 nM. The “effect on HepG2 cells” value ([14]; 30 and 10 μM, 3 d) was “fully eliminated”, the IC50 ([14]; 3 d, cell viability) was roughly 1000 nM and the “effect on structural integrity” value ([1]; 3 μM, 28 d) was “did not lead to statistically significant effects”. For the same molecule, the “effect on structural integrity” value ([1]; 10 μM, 28 d) was “drastic loss of structural integrity of all”.

From paper PMC9560627, “Targeting Echinococcus multilocularis PIM kinase for improving anti-parasitic chemotherapy” (PLoS Neglected Tropical Diseases, 2022)
